Source: article PMC4627656, “Combining Metabolite-Based Pharmacophores with Bayesian Machine Learning Models for Mycobacterium tuberculosis Drug Discovery” (PLoS ONE, 2015)
Converted amounts (≈) assume the structure as drawn.

Tests used:
Type in all cases: cell-based
[1] = test system: clinical MDR-TB strain 31; assay: AlamarBlue MIC (absorbance), strain panel: 31; settings: Mycobacterium tuberculosis, read-out: MIC, strain 31
[2] = test system: clinical MDR-TB strain 36; assay: AlamarBlue MIC (absorbance), strain panel: 36; settings: Mycobacterium tuberculosis, read-out: MIC, strain 36
[3] = test system: H37Rv (laboratory strain); assay: AlamarBlue MIC (absorbance), strain panel: H37Rv; settings: Mycobacterium tuberculosis, drug resistance: None
[4] = test system: clinical MDR-TB strain 91; assay: AlamarBlue MIC (absorbance), strain panel: 91; settings: Mycobacterium tuberculosis, read-out: MIC, strain 91
clinical strain 210 = assay: AlamarBlue MIC (absorbance), strain panel: 210; settings: Mycobacterium tuberculosis, drug resistance: None
[5] = test system: clinical MDR-TB strain 116; assay: AlamarBlue MIC (absorbance), strain panel: 116; settings: Mycobacterium tuberculosis, read-out: MIC, strain 116

CCCCC(=O)c1c(C)[n+]([O-])c2ccc([N+](=O)[O-])cc2[n+]1[O-] [SRI50]
MIC [1]: 0.31 µg/mL (≈ 1.02 µM)
MIC [2]: 0.16 µg/mL (≈ 0.524 µM)
MIC [3]: 0.16 µg/mL (≈ 0.524 µM)
MIC [4]: 0.16 µg/mL (≈ 0.524 µM)
MIC (clinical strain 210): 0.31 µg/mL (≈ 1.02 µM)
MIC [5]: 0.16 µg/mL (≈ 0.524 µM)
